The values that follow are results of earlier work, collected in patent publication US4733002A, “Lipoxygenase inhibitor” (Green Cross Corporation, priority 1984, dated 1988).

The test system of this data set is 5-lipoxygenase. To be noted: prior art, statement in words.

For `COC(=O)C=Cc1ccc(O)c(O)c1` [its methyl ester], the 5-lipoxygenase inhibiting activity result is reported as “not a satisfactory one”.

As to `O=C(O)/C=C/c1ccc(O)c(O)c1` [caffeic acid], the 5-lipoxygenase inhibiting activity entry is on record as “not a satisfactory one”.
